The first experiment concerns the target T1, DNA repair protein RAD51 homolog 1 (Homo sapiens, UniProt Q06609).
T1 sequence (Q06609 whole entry): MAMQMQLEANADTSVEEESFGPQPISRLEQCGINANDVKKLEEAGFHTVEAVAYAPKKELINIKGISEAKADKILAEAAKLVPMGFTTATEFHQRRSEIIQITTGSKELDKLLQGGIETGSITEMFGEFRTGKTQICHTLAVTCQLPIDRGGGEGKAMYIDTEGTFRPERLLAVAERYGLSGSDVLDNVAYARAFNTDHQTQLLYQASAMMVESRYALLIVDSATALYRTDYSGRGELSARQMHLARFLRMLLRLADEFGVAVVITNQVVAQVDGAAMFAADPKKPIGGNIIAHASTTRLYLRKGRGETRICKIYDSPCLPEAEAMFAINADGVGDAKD
The experiment can be described thus: concentration-dependent blocking of RAD51 activity – biochemical, homologous recombination, fluorescence, dose response (AID 1435).
Settings: not given
For the molecule `CCCCCOCC1CC(CC(C)N=Nc2nc(-c3ccccc3)cs2)C(=O)O1` (stereo not given) [5-(amoxymethyl)-3-[2-[(4-phenylthiazol-2-yl)hydrazono]propyl]tetrahydrofuran-2-one], the half-inhibitory concentration (IC50) (commonly the point on the concentration scale where inhibition reaches its midpoint) is over 85 µM.
Take `Cc1cc(C(=O)Nc2cccnc2)cs1` [5-methyl-N-pyridin-3-yl-thiophene-3-carboxamide]: the IC50 is over 85 µM.
On the same count and under the same terms, the figure for `Cc1cc2nc3c(nc2cc1C)C1(C(=O)O)CCC3(C)C1(C)C` (stereo not given) [6,7,12,15,15-pentamethyl-3,10-diazatetracyclo[10.2.1.0~2,11~.0~4,9~]pentadeca-2(11),3,5,7,9-pentaene-1-carboxylic acid] is 37.1 µM.
Regarding `FC(F)(F)c1nnc2ccc(N3CCCC3)nn12` [6-(1-pyrrolidinyl)-3-(trifluoromethyl)[1,2,4]triazolo[4,3-b]pyridazine], the half-inhibitory concentration (IC50) was over 85 µM.
Regarding `O=C(c1ccc2ccccc2n1)N1CCN(c2ccccc2O)CC1` [Glucosamine derivative, 2], the IC50 is over 85 µM.
Regarding `COc1cccc2c1C(=O)c1c(O)c3c(c(O)c1C2=O)C[C@@](O)(C(=O)CO)C[C@@H]3O[C@H]1C[C@H](N)[C@H](O)[C@H](C)O1` [MLS000028393], the half-maximal inhibitory concentration (IC50) is over 85 µM.
As to `CN1CCN(C2=C(Cl)C(=O)N(Cc3ccccc3)C2=O)CC1` [MLS000030834], the IC50 was over 85 µM.
As for `O=c1[nH]c(N2CCN(Cc3ccc4c(c3)OCO4)CC2)nc2c1CCC2` [MLS000100276], the concentration for half-maximal inhibition (IC50) was over 85 µM.
Same read-out and setting: the figure for `O=C(O)/C=C/c1cn(Cc2ccccc2)nc1-c1ccccc1` [MLS000567315] is over 85 µM; for `O=C(Nc1ccc(-c2nc3ccccc3o2)cc1)c1ccc2c(c1)OCO2` [N-[4-(1,3-benzoxazol-2-yl)phenyl]-1,3-benzodioxole-5-carboxamide] it is over 85 µM.
As to `CC1CCCC(C)N1S(=O)(=O)c1ccc(NC(=O)CCn2cnc3ccccc3c2=O)cc1` (stereo not given) [N-[4-(2,6-dimethylpiperidin-1-yl)sulfonylphenyl]-3-(4-oxoquinazolin-3-yl)propanamide], the IC50 is over 85 µM.
Same read-out and setting: the figure for `O=S(=O)(Nc1ccc(O)c(CN2CCCCC2)c1)c1ccccc1` [N-[4-oxidanyl-3-(piperidin-1-ylmethyl)phenyl]benzenesulfonamide] is over 85 µM.
For `CC(C)CC(=O)/N=C(\N)Nc1nc2ccccc2s1` [N-[(E)-N''''-(1,3-benzothiazol-2-yl)carbamimidoyl]-3-methylbutanamide], the IC50 is over 85 µM.
For the molecule `Cc1ccc(C(=O)COc2cccc(NC(=O)c3ccco3)c2)cc1` [N-{3-[2-(4-methylphenyl)-2-oxoethoxy]phenyl}-2-furamide], the IC50 is over 85 µM.
The same measure, in the same setting: the figure for `CCCOc1ccccc1N=C(NC(=O)COc1ccc(OC)cc1)Nc1nc(C)cc(C)n1` [N-{[(4,6-dimethyl-2-pyrimidinyl)amino][(2-propoxyphenyl)amino]methylene}-2-(4-methoxyphenoxy)acetamide] is over 85 µM.
The same measure, in the same setting: the figure for `COc1cc(C(=O)O)c2c(c1C)OC(=O)c1c(C)cc(O)c(C=O)c1O2` [NSC-92186] is 5.45 µM; for `COCCn1c(=NC(=O)CSC(C)=O)sc2cc(F)ccc21` [S-[2-[[6-fluoranyl-3-(2-methoxyethyl)-1,3-benzothiazol-2-ylidene]amino]-2-oxidanylidene-ethyl] ethanethioate] it is over 85 µM; for `Cc1onc(-c2c(Cl)cccc2Cl)c1C(=O)Nn1cnnc1` [SMR000009301] it is over 85 µM.
On the same count and under the same terms, the figure for `CCC1(C)Nc2ccccc2C(=O)N1O` (stereo not given) [SMR000024795] is over 85 µM; for `CN1CCN(C(=O)c2ccc(S(=O)(=O)c3ccc(Br)cc3)cc2)CC1` [SMR000041005] it is over 85 µM; for `Cc1cc(C)n(-c2nc3c(c(=O)[nH]c(=O)n3C)n2Cc2ccc(F)cc2)n1` [SMR000046638] it is over 85 µM.
In the case of `CCOC(=O)C1CCN(CC(=O)Nc2c(C(=O)OC)n(C)c3cccc(C)c23)CC1` [SMR000046840], the IC50 is over 85 µM.
Turning to `CCC(CC)c1nnc(NS(=O)(=O)Cc2ccccc2)s1` [SMR000074911], the half-inhibitory concentration (IC50) was over 85 µM.
Consider `OC(COc1ccc2c(c1)CCC2)Cn1cnc2ccccc21` (stereo not given) [SMR000082144], for which the IC50 was over 85 µM.
Take `O=C(CN(Cc1ccco1)C(=O)CCC(=O)Nc1nccs1)NCc1ccccc1` [SMR000117995]: the half-maximal inhibitory concentration (IC50) was over 85 µM.
Still for that read-out and setting: the figure for `O=C1OCC2OC(O)C(O)C(O)C2OC(=O)c2cc(O)c(O)c(O)c2-c2c(O)c(O)c3oc(=O)c4c(c(O)c(O)c5oc(=O)c2c3c54)-c2c1cc(O)c(O)c2O` (stereo not given) [SMR000445568] is 0.176 µM; for `CCOC(=O)c1c(NS(C)(=O)=O)sc2c1CCC(C)C2` (stereo not given) [ethyl 2-(methanesulfonamido)-6-methyl-4,5,6,7-tetrahydro-1-benzothiophene-3-carboxylate] it is over 85 µM; for `COC(=O)C(C=Nc1cccc(Cl)c1C)c1ncc(C(F)(F)F)cc1Cl` (stereo not given) [methyl (Z)-3-(3-chloro-2-methylanilino)-2-[3-chloro-5-(trifluoromethyl)-2-pyridinyl]-2-propenoate] it is over 85 µM.
The same measure, in the same setting: the figure for `COC(=O)COc1ccc(S(=O)(=O)NCCC2=CCCCC2)cc1C` [methyl [4-({[2-(1-cyclohexen-1-yl)ethyl]amino}sulfonyl)-2-methylphenoxy]acetate] is over 85 µM.

The experiment is the same for the next values; noted with them: inactive by the depositor's call.
For the molecule `O=P(OCC(F)(F)C(F)F)(N1CCOCC1)N1CCOCC1` [4-[morpholin-4-yl(2,2,3,3-tetrafluoropropoxy)phosphoryl]morpholine], the 50% inhibitory concentration (IC50) amounted to 42.5 µM.
Consider `COC(=O)c1cc2n(n1)CCN(Cc1ccc(F)cc1)C2=O` [5-(4-fluorobenzyl)-4-keto-6,7-dihydropyrazolo[1,5-a]pyrazine-2-carboxylic acid methyl ester], for which the IC50 worked out at 42.5 µM.
Consider `CCOC(=O)CN1C(=O)N[C@@H](CCc2ccccc2)[C@@H](C(=O)OC)[C@H]1C` [CMLD004122], for which the concentration for half-maximal inhibition (IC50) was 42.5 µM.
Regarding `O=C(NC1CCCCC1)c1cc([N+](=O)[O-])ccc1N1CCCCC1` [Glucosamine derivative, 8], the IC50 came to 42.5 µM.
With `Cc1ccc(/C(C#N)=C\c2cn(C)c3ccccc23)cc1` [MLS000051428], the IC50 is 42.5 µM.
Still for that read-out and setting: the figure for `O=C(CN1C(=O)C2CC=CCC2C1=O)Nc1nccs1` (stereo not given) [MLS000054855] is 42.5 µM; for `CC(=O)Nn1c(-c2ccccc2)cc2ccccc21` [MLS000082684] it is 42.5 µM.
As to `COC(=O)CCC(=O)OC1(C)C(=O)C2=CN(C3CC3)C(c3ccc(OC)cc3)=CC2=C(Br)C1=O` (stereo not given) [MLS000438679], the IC50 is 42.5 µM.
For `O=C(CN1C(=O)c2ccccc2S1(=O)=O)Nc1ccc(S(=O)(=O)N2CCCCC2)cc1` [SMR000074755], the IC50 amounted to 42.5 µM.
Regarding `CC1(C)CC(=O)C=C(NNC(=O)c2ccccc2O)C1` [SMR000185773], the IC50 was 42.5 µM.
On the same count and under the same terms, the figure for `COC(=O)c1nc(N)sc1-c1ccccc1` [methyl 2-azanyl-5-phenyl-1,3-thiazole-4-carboxylate] is 42.5 µM.
